{"source": "patent US20110142837A1", "about": "“Method Of Treating Acute Respiratory Distress Syndrome” (TRUSTEES OF THE UNIVERSITY OF PENNSYLVANIA, priority 2007, published 2011)", "key": {"[1]": {"test_system": "neutrophils from healthy individuals incubated with BAL fluid from ARDS patients", "assay": "mPT of supernatants from healthy neutrophils stimulated with ARDS BAL fluid, inhibition studies", "format": "cell-based, human", "protocol": "Isolation of peripheral blood neutrophils: Circulating leukocytes from all ARDS patients and from 4 healthy donors were immediately isolated from EDTA-treated peripheral blood. Peripheral blood neutrophils were separated by Histopaque-double gradient density centrifugation. The absolute number of neutrophils was adjusted to 2-3×10^6 cells/ml in PBS. Approximately one-quarter (˜6-8×10^5 cells in 250 μl PBS) was used for each stimulation or inhibition reaction. Cell purity (>98%), viability by trypan blue exclusion (>97%), and platelet contamination (<2 platelets/100 neutrophils) were assessed in all experiments.\nModified prothrombin time (mPT) assay: The supernatants from neutrophils that had been incubated with BALF supernatants or/and various agents were isolated by centrifugation at 1000×g for 10 minutes; the supernatants from these neutrophil preparations were checked a second time to confirm the absence of contaminating cells or platelets. The coagulation activities (TF/FVIIa binding activity) of the cell supernatants were determined using a modified prothrombin time (mPT) assay as previously described (18). After performing the “classic” prothrombin time (PT) test (100 microliter (μl) platelet poor plasma (PPP) plus 200 μl thromboplastin ISI 1.9 (Instrumentation Laboratory, Milan, Italy), the modified PT analysis was carried out. Namely, 120 μl of cell or BALF supernatant and 80 μl thromboplastin were added to 100 μl of PPP to measure the changes in PT. As a control for modified PT assays, 120 μl of PBS was used instead of cell supernatant, and the in vitro clotting time usually ranged from 31 seconds to 34 seconds.\n(§1) Stimulation and inhibition studies: Neutrophils from healthy individuals were incubated for 120 minutes at 37° C. in PBS containing various stimulatory or inhibitory substances, in a total volume of 250 μl. Neutrophils were incubated with: 1) serum (50 μl) from healthy individuals; 2) serum (50 μl) from patients suffering from ARDS; 3) BAL fluid (40 μl) from ARDS patients; 4) BAL fluid from ARDS patients, together with normal neutrophils that had been pretreated for 30 minutes with the C5aR antagonist AcF-[OpdChaWR] (5 μM final concentration); 5) BAL fluid from patients with ARDS, together with normal neutrophils that had been preincubated for 30 minutes with the C3aR antagonist […], 10 μM final concentration); 6) BAL fluid from ARDS patients pretreated for 30 minutes with Humira® (Abbot Laboratories, Abbott Park, Ill.; anti-TNF monoclonal antibody, 0.4 μg/μl final concentration), together with normal neutrophils; or 7) BAL fluid from ARDS patients, together with normal neutrophils pretreated for 30 minutes with anti-IL-6 Mab (10 μg/ml final concentration).\nIn the complement cascade, cleavage of C3 produces C3a and C3b. C3b contributes to the formation of enzymatic assemblies that in turn catalyze the formation of C5a from C5. The following experiment was designed to test whether inhibition of C3 cleavage, which reduces the amount of C5a formed, is effective in reducing TF expression. Modified PT assays were carried out essentially as described above using neutrophils obtained from healthy individuals and incubating them with BAL fluid from patients with ARDS. The BAL fluid from the seven patients was tested individually."}, "[2]": {"target": "C5a receptor (C5aR) on neutrophils from healthy individuals (human) (UniProt P21730)", "sequence (P21730 whole entry)": "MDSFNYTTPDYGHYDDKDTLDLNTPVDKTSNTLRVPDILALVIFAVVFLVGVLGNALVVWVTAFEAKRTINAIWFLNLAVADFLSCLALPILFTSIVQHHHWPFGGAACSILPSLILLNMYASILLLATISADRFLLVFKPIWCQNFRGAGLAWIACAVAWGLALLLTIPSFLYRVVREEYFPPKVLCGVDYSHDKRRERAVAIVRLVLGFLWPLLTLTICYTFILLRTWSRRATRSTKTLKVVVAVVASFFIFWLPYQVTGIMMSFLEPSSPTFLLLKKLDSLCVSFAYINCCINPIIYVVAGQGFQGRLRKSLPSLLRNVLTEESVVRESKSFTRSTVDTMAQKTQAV", "assay": "cell-based or functional assay"}, "[3]": {"test_system": "TF expression in neutrophils", "assay": "TF expression in BALF-stimulated healthy neutrophils (APAAP immunostaining, FACS, western blot)", "format": "cell-based, human", "details": "FIGS. 4B, C and D; healthy neutrophils + 40 μl ARDS BALF", "protocol": "as §1\nAlkaline-Phosphatase anti-Alkaline-Phosphatase (APAAP) Immunostaining: Smears of cells (BALF pellet and peripheral blood-isolated neutrophils, before and after stimulation and/or inhibition studies) were stored at −20° C. prior to use. […]"}, "[4]": {"target": "TNF-alpha in BALF from ARDS patients (human) (UniProt P01375)", "sequence (P01375 77-233 limits assumed)": "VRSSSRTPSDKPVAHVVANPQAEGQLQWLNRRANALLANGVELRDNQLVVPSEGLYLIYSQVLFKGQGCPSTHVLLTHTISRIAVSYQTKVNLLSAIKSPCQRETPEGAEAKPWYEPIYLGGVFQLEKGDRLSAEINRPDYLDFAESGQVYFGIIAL", "assay": "cell-based or functional assay"}}}
{"compound": "NC(N)=NCCC[C@H](NC(=O)COCC(c1ccccc1)c1ccccc1)C(=O)O", "note": "[SB-290152]", "values": [{"measurement": "influence on mPT values of supernatants from BALF-stimulated neutrophils", "setting": "[1]; SB-290152 10 μM, anti-IL-6 Mab 10 μg/ml, 30 minutes pretreatment", "value": "did not influence the mPT values"}]}
{"compound": "CC[C@H](C)[C@H](N)C(=O)N[C@H]1CSSC[C@@H](C(=O)N[C@H](C(N)=O)[C@@H](C)O)NC(=O)[C@H](CCCN=C(N)N)NC(=O)[C@H](Cc2cnc[nH]2)NC(=O)[C@H](Cc2cnc[nH]2)NC(=O)CNC(=O)[C@H](Cc2c[nH]c3ccccc23)NC(=O)[C@H](CC(=O)O)NC(=O)[C@H](CCC(N)=O)NC(=O)[C@H](C(C)C)NC(=O)[C@H](C(C)C)NC1=O", "note": "[compstatin, Ile-Cys-Val-Val-Gln-Asp-Trp-Gly-His-His-Arg-Cys-Thr]", "values": [{"measurement": "mPT, healthy neutrophils + BALF incubated with compstatin, group b", "setting": "[1]; 3 ARDS cases (group b), FIG. 6, column 5, P=ns compared to BALF alone 24.13±1.31", "value": "24.57±0.55"}, {"measurement": "mPT, healthy neutrophils + BALF preincubated with compstatin, group a", "setting": "[1]; 4 ARDS cases (group a), FIG. 6, column 4, p<0.001 compared to BALF alone 24.13±1.31, PBS 32.11±0.58", "value": "27.98±0.71"}, {"measurement": "effect on procoagulant activity in mPT, Comp b", "setting": "[1]; group of 3 ARDS patients, FIG. 6", "value": "did not significantly reduce the procoagulant activity"}, {"measurement": "effect on procoagulant activity in mPT, Comp a", "setting": "[1]; group of 4 ARDS patients, FIG. 6", "value": "reduced the procoagulant activity"}]}
{"compound": "AcF-[OPdChaWR] (acetyl-Phe-[Orn-Pro-D-cyclohexylalanine-Trp-Arg]; PMX-53) (peptide)", "values": [{"measurement": "modified prothrombin time (mPT) of supernatants from BALF-stimulated healthy neutrophils pretreated with C5aR antagonist", "setting": "[2]", "value": 31.9, "unit": "s"}]}
{"compound": "Acetyl-Phe-[Orn-Pro-D-cyclohexylalanine-Trp-Arg] [PMX-53]", "values": [{"measurement": "TF expression in BALF-stimulated neutrophils after blockade (immunohistochemical, flow cytometry, western blot)", "setting": "[3]", "value": "loss of TF expression"}, {"measurement": "mPT of supernatants from BALF-stimulated healthy neutrophils after blockade of signaling", "setting": "[1]; 40 μl ARDS BALF, 30 minutes pretreatment, C5aR antagonist 5 μM, Humira 0.4 μg/μl, BALF without inhibitor 24.13±1.31 sec, ARDS serum control 29.69±1.64 sec, p<0.001, FIG. 4A", "value": "31.91 ± 0.64", "unit": "s"}]}
{"compound": "Humira (Abbott Laboratories; anti-TNF monoclonal antibody)", "values": [{"measurement": "modified prothrombin time (mPT) of supernatants from healthy neutrophils stimulated with BALF pretreated with anti-TNF antibody", "setting": "[4]", "value": 30.4, "unit": "s"}]}
